Columns and labels:
human α-synuclein = experiment: Human α-synuclein clearance in A53T transgenic mice; assay type: in vivo, mouse; conditions: i.p., 18 mg/kg/day, p=0.01 vs vehicle-treated A53T mice
Protocol: (§1) FIG. 4. Enhancing lysosome efficiency with the cathepsin B modulator PADK leads to reductions of multiple types of proteinopathy-related accumulation events. […] Age-matched wild-type mice (wt) and 9-10-month mutant human APP mice, a model of early dementia, treated with or without PADK were assessed for the 4-kDa Δβ peptide, the active form of cathepsin B (act CB), and other proteins in hippocampal samples (C). Similar treatment groups used another APP mouse model at 20-22 months of age to measure clearance of APP carboxyterminal fragments APP-αCTF and APP-βCTF (D). Rat hippocampal slice cultures from the untreated control group (con) and slices treated with submicromolar Δβ42 (early tauopathy model) in the absence or presence of PADK (5 μM for 4 days) were assessed for phosphorylated tau (pTau) and other proteins (E). For a model of early α-synucleinopathy, human A53T α-synuclein transgenic mice, at 7 months old, were studied with or without PADK treatment and assessed for human α-synuclein (α-syn) in TX-100 extracts of hippocampus and for other proteins in hippocampal homogenates (F). Plotted data (±SEM) were compared to neighboring vehicle groups by unpaired t-tests: *p=0.02, **p<0.01, ***p<0.001. APPswind and APP-PS1 mice are described in Butler et al., (2011), the entire content of which is hereby incorporated herein by reference.
FIG. 6. […]

GluR1 = experiment: Immunoblot of postsynaptic marker GluR1 in hippocampal homogenates of Fischer rats; assay type: in vivo, rat; conditions: 27 mg/kg daily for 9 days; vs vehicle, p=0.0386
Protocol: (§2) FIG. 3. Lysosomal modulator PADK dramatically up-regulates active cathepsin B levels in middle-aged Fischer rats, a model of MCI. The female rats were injected daily with vehicle (veh) or 27 mg/kg PADK for 9 days. Brain regions were dissected, homogenates prepared, and equal protein aliquots were assessed by immunoblot to label the 30-kDa active form of cathepsin B as well as actin load controls (A). The hippocampal homogenate samples were also stained for the postsynaptic marker GluR1 to assess for synaptic recovery in correspondence to cathepsin B regulation (A, lower blots).
(§3) Brains were removed from the Fischer rats after the behavior studies in order to assess cathepsin B and synaptic marker levels. […] Cathepsin B immunoreactivity was increased 4- to 8-fold in hippocampal as well as neocortical homogenates, while non-lysosomal proteins remained unchanged (gel load controls). In addition to the correspondence with improved memory, there is evidence that the lysosomal modulation corresponds with synaptic recovery, assessing the postsynaptic marker GluR1 in hippocampus (FIG. 3A lower blots, and FIG. 3C). Without wishing to be bound by any scientific theory, the results support the hypothesis that lysosomal enhancement offsets the age-related cascade of microtubule destabilization, transport failure, synaptic decline, and cognitive impairment. […]

[1] = target: T1, active form of cathepsin B (Mus musculus, UniProt P10605); experiment: Active cathepsin B immunoblot in CNS regions of A53T α-synuclein transgenic mice; assay type: in vivo; conditions: i.p., 18 mg/kg/day
T1 construct: from tissue; host or cells: brain and CNS regions of mice (PADK-treated mice, A53T transgenic and wild-type mice, C57BL/6 mice)
T1 sequence (P10605 80-333 limits assumed): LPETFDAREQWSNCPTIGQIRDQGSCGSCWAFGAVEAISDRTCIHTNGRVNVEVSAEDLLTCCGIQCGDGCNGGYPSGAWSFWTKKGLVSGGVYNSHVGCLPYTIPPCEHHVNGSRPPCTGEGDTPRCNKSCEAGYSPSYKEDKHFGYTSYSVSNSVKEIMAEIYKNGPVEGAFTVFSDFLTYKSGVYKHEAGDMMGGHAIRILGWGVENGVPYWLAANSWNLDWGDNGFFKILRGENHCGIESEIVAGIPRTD
Protocol: as §1
FIG. 6. […]

cathepsin B = experiment: Cathepsin B species immunoblot in heart tissue of A53T mice; assay type: in vivo, mouse
Protocol: FIG. 8. PADK also enhances cathepsin B species in the heart. The A53T early α-synucleinopathy mouse model was injected daily with vehicle or PADK (i.p., 18 mg/kg/day) to test for changes in heart tissue. […] Positions of molecular weight standards (kDa) are shown on the left side of the immunoblot. (B) In the lower graph, ratios between CB-30 and CB-105 (mean±SEM) provide a good example of the unique PADK effect on cathepsin B species in the heart. **P<0.01 as compared to vehicle-treated A53T mice.
Ratio measures between the 30-kDa form and the 105-kDa species indicate a unique PADK effect on cathepsin B species in the heart (FIG. 8 bar graph).

[2] = target: T2, 30-kDa active form of cathepsin B (Rattus norvegicus, UniProt P00787); experiment: Immunoblot of active cathepsin B in brain region homogenates of Fischer rats; assay type: in vivo; conditions: hippocampal and neocortical homogenates; 27 mg/kg daily, 9 days of injections
T2 construct: assessed by immunoblot to label the 30-kDa active form of cathepsin B; from tissue; host or cells: Fischer rat brain regions (A5); rat brain regions, eye and skin after oral dosing (A18); rat organotypic heart slice cultures (A17)
T2 sequence (P00787 80-333 limits assumed): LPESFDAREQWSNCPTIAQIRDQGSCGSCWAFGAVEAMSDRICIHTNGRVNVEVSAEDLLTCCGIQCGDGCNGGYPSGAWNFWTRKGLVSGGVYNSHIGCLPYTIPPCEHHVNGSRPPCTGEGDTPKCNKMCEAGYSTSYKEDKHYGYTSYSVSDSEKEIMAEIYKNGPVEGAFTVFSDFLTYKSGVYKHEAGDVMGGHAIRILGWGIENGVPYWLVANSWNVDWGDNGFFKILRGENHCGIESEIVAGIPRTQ
Protocol: as §2, §3

Question: `C[C@H](NC(=O)[C@H](Cc1ccccc1)NC(=O)OCc1ccccc1)C(=O)C=[N+]=[N-]` [PADK, N-carbobenzyloxy-L-phenylalanyl-L-alanyl-diazomethylketone] was tested. Which “human α-synuclein levels” value (human α-synuclein) did it give?
Answer: The value was “decrease”.

Question: What about the “GluR1 levels in hippocampus” value (GluR1) of the same molecule?
Answer: Its value is “increased”.

Question: And the “active CatB levels increase in brains” value ([1]; 7-8 months)?
Answer: Its value is 3-6 fold.

Question: What about the “active form of cathepsin B across CNS regions (immunoblot)” value ([1]; 7 months, p<0.02 vs vehicle-treated tg) of the same molecule?
Answer: Its value is “robust PADK-mediated increase”.

Question: What about the “high molecular weight cathepsin B species (CB-80, CB-85, CB-105) in heart” value (cathepsin B; A53T mice, i.p., 18 mg/kg/day) of the same molecule?
Answer: The value was “returned the high molecular weight species to near normal levels”.

Question: What about the “ratio between active cathepsin B form of 30 kDa and the precursor of >100 kDa” value (cathepsin B; heart tissue, p<0.01 vs vehicle-treated A53T mice) of the same molecule?
Answer: Its value is “enhances the ratio”.

Question: And the “Cathepsin B immunoreactivity increase” value [2]?
Answer: Its value is 4- to 8 fold.

From patent publication US20160136229A1, “MATERIALS FOR POSITIVE CATHEPSIN B MODULATION AND METHODS OF USE FOR TREATING MILD COGNITIVE IMPAIRMENT (MCI), EARLY DEMENTIA, A-SYNUCLEINOPATHY, TRAUMATIC BRAIN INJURY, CARDIOMYOPATHY, EYE DISEASE AND SKIN DAMAGE” (University of North Carolina at Pembroke, priority 2013, published 2016)
